According to PMC8326471, “Synthesis and biological evaluation of new pyrazolebenzene-sulphonamides as potential anticancer agents and hCA I and II inhibitors” (Turkish Journal of Chemistry, 2021):

Legend:
[1] = tested on: human oral squamous cell carcinoma cell lines (Ca9-22, HSC-2, HSC-3, HSC-4); assay: Cytotoxicity assay, all tumor cell lines (mean, TS1, PSE1); assay type: cell-based; conditions: mean of Ca9-22, HSC-2, HSC-3, HSC-4, read-out: Tumor cell lines CC50 mean (B)
Description: (§1) The cytotoxicity of the compounds 4a - 4j were assayed towards human tumor cell lines [gingival carcinoma (Ca9–22), oral squamous cell carcinoma (HSC-2)] and human normal oral cells [gingival fibroblasts (HGF), and periodontal ligament fibroblasts (HPLF)] as described [42, 54 – 56]. In brief, all cells were cultured in Dulbecco’s modified eagle’s medium (DMEM) supplemented with 10% fetal bovine serum (FBS). The following concentrations of the compounds in dimethylsulfoxide (DMSO) were added to the medium and incubated at 37 ° C for 48 h: 4a - 4j ([…]), melphalan (3.12, 6.25, 12.5, 25. 50, 100, 200 and […]) and 5-FU ([…]). The media that contained the same concentration of DMSO ([…], 0.03125, 0.0625, 0.125, 0.25, 0.5 or 1%) were used as controls since DMSO above 0.25% is cytotoxic. The viable cell numbers were determined by the 3-(4,5-dimethylthiazol-2-yl)-2,5-diphenyltetrazolium bromide (MTT) assay. The CC50 values were determined from dose-response curves.
(§2) Cytotoxicity’s of the compounds 4a - 4j were evaluated towards Ca9–22, HSC-2, HSC-3, and HSC-4 human oral squamous cell carcinoma cell lines as tumor cell lines and HGF, HPLF, and HPC human normal oral cells as nontumor cells (Table 1) according to the procedure in the literature [42, 54 – 56]. 5-Fluorouracil (5-FU) was used as a reference anticancer drug.
The tumor selectivity (TS1 and TS2) of each compound was calculated as described in previously reported literature procedures and these figures are presented in Table 1. Based on the TS1 values, 4f and 4g which have 2,5 and 2,4-dimethoxy substituents had the highest TS1 values in a series with 22.4 and 22.2, respectively. On the other hand, the 3,4,5-trimethoxy substituted compound 4i (TS1: 19.6) had the […] TS1 value. […] As expected, they were in accordance with the literature findings [16 – 18]. The second calculation (TS2) considered the differences of sensitivity between the malignant (Ca9–22) and non-malignant (HGF) cells derived from the same tissue (gingiva). According to TS2 values obtained, 4i (3,4,5-trimethoxy) had the highest TS2 value of 43.
The desired properties for a lead compound are being both markedly cytotoxic and selectively toxic for tumors. PSE1 reflects general cytotoxicity and selectivity potency of the compound towards all cells used, whereas PSE2 seems more specified since it was considered for the same origin cells. When the compounds tested towards OSCC lines were considered in terms of PSE2 values of the compounds. The best poly-methoxylated compounds were 4i (with 3,4,5-trimethoxy, PSE2 = 461.5) ˃ 4f (with 2,5-dimethoxy, PSE2 = 425.1) ˃ 4g (with 2,4-dimethoxy, PSE2 = 405.4) while the best mono-methoxylated derivative was 4b (with 4-methoxy, PSE2 = 205).

[2] = Cytotoxicity assay (MTT), HGF normal cells; assay type: cell-based; conditions: human, HGF gingival fibroblasts (normal oral cells), non-tumor cells
Description: as §1, §2

hCA II = hCA II (Homo sapiens, UniProt P00918); assay: Carbonic anhydrase enzyme assay (esterase activity), hCA II; assay type: biochemical; conditions: for Ki: Lineweaver-Burk plot; for IC50: esterase activity, p-nitrophenyl acetate
Excerpt: (§3) Human CA isoforms (hCAI and hCAII) were purified by the sepharose - 4B – L - tyrosine sulfanilamide affinity segregation method as reported. […] Inhibitory effects of the compounds were investigated by measuring the esterase activity according to Verpoorte et al. as described in previous studies [61 – 63].
(§4) Vmax, maximal velocity; VImax, maximal velocity of inhibitor; I, inhibitor; Ki, the inhibitor constant.

[3] = Cytotoxicity assay (MTT), HPC normal cells; assay type: cell-based; conditions: human, HPC normal oral cells, non-tumor cells
Description: as §1, §2

hCA I = hCA I (Homo sapiens, UniProt P00915); assay: Carbonic anhydrase enzyme assay (esterase activity), hCA I; assay type: biochemical; conditions: for Ki: Lineweaver-Burk plot; for IC50: esterase activity, p-nitrophenyl acetate
Excerpt: as §3, §4

[4] = Cytotoxicity assay (MTT), HPLF normal cells; assay type: cell-based; conditions: human, HPLF periodontal ligament fibroblasts (normal oral cells), non-tumor cells
Description: as §1, §2

[5] = tested on: HSC-3 oral squamous cell carcinoma cells; assay: Cytotoxicity assay (MTT), HSC-3; assay type: cell-based; conditions: Homo sapiens, tumor cell line, 48 h
Description: as §1, §2

[6] = Cytotoxicity assay, all non-tumor cells (mean); assay type: cell-based; conditions: human, normal oral cells HGF, HPLF and HPC (mean of the three), read-out: Non-tumor cell lines CC50 mean (D)
Description: as §1, §2

[7] = tested on: oral squamous cell carcinoma (HSC-2) cells; assay: Cytotoxicity assay (MTT), HSC-2; assay type: cell-based, human; conditions: for CC50: Homo sapiens, HSC-2, tumor cell line, 48 h, MTT; for times of potency compared to 5-FU, HSC-2: cytotoxicity relative to 5-FU
Description: as §1, §2

[8] = tested on: gingival carcinoma (Ca9-22) cells; assay: Cytotoxicity assay (MTT), Ca9-22; assay type: cell-based, human; conditions: for CC50: Homo sapiens, Ca9-22, tumor cell line, 48 h, MTT; for times of potency compared to 5-FU, Ca9-22: cytotoxicity relative to 5-FU; for PSE2 times more potent than 5-FU: PSE2 relative to reference drug 5-FU
Description: as §1, §2

[9] = tested on: HSC-4 oral squamous cell carcinoma cells; assay: Cytotoxicity assay (MTT), HSC-4; assay type: cell-based; conditions: Homo sapiens, tumor cell line, 48 h
Description: as §1, §2

Sequence of hCA I (P00915 whole entry): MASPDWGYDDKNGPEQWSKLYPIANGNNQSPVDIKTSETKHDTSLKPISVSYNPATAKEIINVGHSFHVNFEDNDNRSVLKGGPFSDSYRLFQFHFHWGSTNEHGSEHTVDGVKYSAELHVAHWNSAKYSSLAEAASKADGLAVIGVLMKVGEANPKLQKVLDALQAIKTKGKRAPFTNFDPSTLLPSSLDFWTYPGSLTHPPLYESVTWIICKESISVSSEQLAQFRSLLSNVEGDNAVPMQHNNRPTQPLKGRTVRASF

| melting point [°C] | Ki (hCA II) [µM] | IC50 (hCA II) [µM] | Ki (hCA I) [µM] | IC50 (hCA I) [µM] | SMILES | CC50 [1] [µM] | CC50 at 48 h [2] [µM] | CC50 at 48 h [3] [µM] | CC50 at 48 h [4] [µM] | CC50 [5] [µM] | CC50 at 48 h [6] [µM] | CC50 [7] [µM] | times of potency compared to 5-FU, HSC-2 [7] | CC50 [8] [µM] | times of potency compared to 5-FU, Ca9-22 [8] | CC50 [9] [µM] | PSE2 times more potent than 5-FU [8] |
| --- | --- | --- | --- | --- | --- | --- | --- | --- | --- | --- | --- | --- | --- | --- | --- | --- | --- |
| 171 to 173 | 11.5 ± 4.6 | 16.3 | 31.9 ± 1.9 | 11.3 | COc1ccc(C2=NN(c3ccc(S(N)(=O)=O)cc3)C(c3ccc4c(c3)OCO4)C2)cc1 (centres unmarked) [4b, 4-[5-(1,3-Benzodioxol-5-yl)-3-(4-methoxyphenyl)-4,5-dihydro-1H-pyrazol-1-yl]benzenesulphonamide] | 16.6 | 400 | 98.7 | 400 | 16.2 | 300 | 18 | 14.5 | 14 | 1.6 | 18.2 |  |
| 212 to 214 | 24.1 ± 7.1 | 12.5 | 52.5 ± 1.8 | 29.7 | COc1cc(C2=NN(c3ccc(S(N)(=O)=O)cc3)C(c3ccc4c(c3)OCO4)C2)cc(OC)c1OC (centres unmarked) [4i, 4-[5-(1,3-Benzodioxol-5-yl)-3-(3,4,5-trimethoxyphenyl)-4,5-dihydro-1H-pyrazol-1-yl]benzenesulphonamide] | 14.6 | 400 | 371 | 83.7 | 11.3 | 285 | 30.9 | 8.4 | 9.3 | 2.4 | 6.7 | 2.2 |
| 196 to 198 | 8.9 ± 2.3 | 10.7 | 59.8 ± 3 | 30.1 | NS(=O)(=O)c1ccc(N2N=C(c3ccccc3)CC2c2ccc3c(c2)OCO3)cc1 (centres unmarked) [4a, 4-[5-(1,3-Benzodioxol-5-yl)-3-phenyl-4,5-dihydro-1H-pyrazol-1 yl]benzenesulphonamide] | 22.5 | 56.3 | 63.2 | 37.6 | 20.8 | 52.4 | 26.1 | 10 | 17.1 | 1.3 | 26.1 |  |
| 191 to 193 | 9.3 ± 1.6 | 14.3 | 49.6 ± 1.9 | 13.8 | COc1cc(OC)c(C2=NN(c3ccc(S(N)(=O)=O)cc3)C(c3ccc4c(c3)OCO4)C2)cc1OC (centres unmarked) [4h, 4-[5-(1,3-Benzodioxol-5-yl)-3-(2,4,5-trimethoxyphenyl)-4,5-dihydro-1H-pyrazol-1-yl]benzenesulphonamide] | 211 | 400 | 400 | 400 | 21.3 | 400 | 400 |  | 400 |  | 21.8 |  |
| 161 to 163 | 9.3 ± 1.9 | 20 | 29.8 ± 9.4 | 17.9 | COc1cc(C2=NN(c3ccc(S(N)(=O)=O)cc3)C(c3ccc4c(c3)OCO4)C2)ccc1O (centres unmarked) [4j, 4-[5-(1,3-Benzodioxol-5-yl)-3-(4-hydroxy-3-methoxyphenyl)-4,5-dihydro-1H-pyrazol-1-yl]benzenesulphonamide] | 21.7 | 76.7 | 54.3 | 64.7 | 26.3 | 65.2 | 26.7 | 9.8 | 17 | 1.3 | 16.8 |  |
| 183 to 185 | 8.9 ± 1.9 | 10.7 | 28.5 ± 1.6 | 12.8 | COc1ccccc1C1=NN(c2ccc(S(N)(=O)=O)cc2)C(c2ccc3c(c2)OCO3)C1 (centres unmarked) [4d, 4-[5-(1,3-Benzodioxol-5-yl)-3-(2-methoxyphenyl)-4,5-dihydro-1H-pyrazol-1-yl]benzenesulphonamide] | 14.6 | 36.9 | 37 | 39.7 | 12.4 | 37.8 | 17.1 | 15.3 | 13.8 | 1.6 | 14.9 |  |
| 243 to 245 | 9.3 ± 0.6 | 15.2 | 25.5 ± 1.6 | 10.2 | COc1ccc(C2=NN(c3ccc(S(N)(=O)=O)cc3)C(c3ccc4c(c3)OCO4)C2)cc1OC (centres unmarked) [4e, 4-[5-(1,3-Benzodioxol-5-yl)-3-(3,4-dimethoxyphenyl)-4,5-dihydro-1H-pyrazol-1-yl]benzenesulphonamide] | 227 | 400 | 400 | 400 | 61 | 400 | 400 |  |  |  | 400 |  |
| 184 to 186 | 6.9 ± 1.5 | 9.2 | 21.5 ± 1.5 | 6.6 | COc1cccc(C2=NN(c3ccc(S(N)(=O)=O)cc3)C(c3ccc4c(c3)OCO4)C2)c1 (centres unmarked) [4c, 4-[5-(1,3-Benzodioxol-5-yl)-3-(3-methoxyphenyl)-4,5-dihydro-1H-pyrazol-1-yl]benzenesulphonamide] | 17.4 | 38.2 | 140 | 178 | 13.9 | 119 | 18.3 | 14.3 | 19.5 |  | 18 |  |
| 134 to 136 | 7.8 ± 2.2 | 11.3 | 12.7 ± 1.7 | 6.7 | COc1ccc(C2=NN(c3ccc(S(N)(=O)=O)cc3)C(c3ccc4c(c3)OCO4)C2)c(OC)c1 (centres unmarked) [4g, 4-[5-(1,3-Benzodioxol-5-yl)-3-(2,4-dimethoxyphenyl)-4,5-dihydro-1H-pyrazol-1-yl]benzenesulphonamide] | 11.5 | 400 | 131 | 234 | 9.8 | 255 | 13.5 | 19.3 | 9.9 | 2.2 | 12.7 | 2.0 |
|  |  |  |  |  | O=c1[nH]cc(F)c(=O)[nH]1 [5-FU, 5-Fluorouracil, reference compound] | 75.8 | 1000 | 958 | 1000 | 7.8 | 986 | 261 |  | 22 |  | 12.5 |  |
